Assay results reported in patent US20240148940A1, “METHODS OF INHIBITION” (Queensland Eye Institute Foundation, priority 2022, published 2024).

Columns and labels:
[1] = system: isolated porcine aortic adventitia; assay: Biaxial tensile measurements on isolated porcine aortic adventitia; conditions: 25% stretch, UV-A 365 nm, 45 mW/cm^2, 10 minutes, n=23
Method: Twenty-three porcine aortas from the abdominal region were used in this study and processed initially as described in Example 1. Irradiation was conducted in the presence of a solution of riboflavin 5′-phosphate monosodium salt in saline in accordance with the procedure of Example 1. The isolated adventitial specimens were then cut into squares of 14 mm×14 mm, and thickness was measured with a digital caliper at three spots and averaged. The tensile properties were measured and recorded biaxially in the CS BioTester™ 5000 biotesting system (CellScale Biomaterials Testing, Waterloo, ON, Canada), equipped with two 2.5-N load cells, using a set of four BioRakes™ that consisted each of 5 tungsten tines spaced evenly. All samples were submerged in a temperature-controlled bath containing PBS at 37° C., and tested by stretching the gripped area (11 mm×11 mm) to 25% of total stretch, at a rate of 1%/s. The samples were preconditioned for 10 cycles, and the tenth cycle was used for subsequent analysis. Assuming that tissue was incompressible and had negligible shear components, the Cauchy stress (σ) was determined with the equations: […]
In these equations, F is the measured load, λ is the stretch, X is the initial length, T is the averaged initial thickness of the tissue sample. […] The stretch was calculated as follows: […]
These characteristics were evaluated for 25% stretch (strain). […]

[2] = system: isolated porcine aortic adventitia subjected to collagenase; assay: Uniaxial tensile testing of enzymatically degraded (collagenolysis) isolated porcine aortic adventitia; conditions: collagenase 20 U/mL, 8 or 20 hours, UV-A 365 nm, 45 mW/cm^2, 10 minutes
Method: An Instron Materials Testing System Model #5943 (Instron, Norwood, MA, USA), equipped with a 50-N load cell, was used to measure uniaxially the tensile properties of isolated adventitia specimens (n=30), prior to and after irradiation. Irradiation was conducted in the presence of a solution of riboflavin 5′-phosphate monosodium salt in saline in accordance with the procedure of Example 1. Before measurements, each specimen was soaked in phosphate buffered saline (PBS) for at least 1 hour at room temperature. Strips (1 cm×3 cm) were cut, and their thickness and width were measured with a digital caliper (Digimax Global Inc., Toronto, Canada). Thirty measurements for specimens in each set of samples (non-irradiated and irradiated) were carried out along the longitudinal direction at a set gauge distance of 16 mm and a speed of 10 mm/min. The values for Young's moduli were computed from the recorded stress-strain plots in the linear region.
Thirty porcine adventitial specimens were isolated and exposed to UV-A radiation as described in Example 1. Irradiation was conducted in the presence of a solution of riboflavin 5′-phosphate monosodium salt in saline in accordance with the procedure of Example 1. Non-irradiated and irradiated adventitial specimens, as sets of 10 pieces each (5 cm×3 cm), were soaked in saline for 1 hour with gentle shaking, and then placed into the wells of 6-well plates. A solution containing 20 U/mL (˜0.08 mg/mL) collagenase was prepared in Tris buffer (0.05 M, pH 7.4), which also contained calcium chloride (10 mM) and sodium azide (0.02%). To each well, 5 mL of this solution was added to cover the samples. The well plates were placed in an orbital shaker and shaken at 160 rpm for either 8 hours or 20 hours at 37° C. […]
The three sets of adventitial specimens designated as (1), (2) and (3) in Example 5 were evaluated by uniaxial tensile testing following the procedure described in Example 2. […]

[3] = system: isolated porcine aortic adventitia; assay: Uniaxial tensile measurements on isolated porcine aortic adventitia, irradiated vs non-irradiated; conditions: 0.1% w/v in saline, UV-A 365 nm, 45 mW/cm^2, 10 minutes, both sides, n=30
Method: Twenty-five porcine aortas from the abdominal region were used in this study, sourced from an abattoir. The aorta specimens were processed by first removing the extraneous adipose and loose connective tissue debris from the external surface using surgical scissors. One cut was then performed along the longitudinal axis of each aortic tube, in order to obtain flat rectangular sheets. A surgical scalpel was used to make an initial cornerwise-interstitial incision between adventitia and media layers, and the adventitial layer was carefully dissected and peeled off by hand. […] The irradiance at the exposure site was monitored with the radiometer Dymax ACCU-CAL 50 (Dymax Corp., Torrington, CT, USA). […]
An Instron Materials Testing System Model #5943 (Instron, Norwood, MA, USA), equipped with a 50-N load cell, was used to measure uniaxially the tensile properties of isolated adventitia specimens (n=30), prior to and after irradiation. […] Strips (1 cm×3 cm) were cut, and their thickness and width were measured with a digital caliper (Digimax Global Inc., Toronto, Canada). […] The values for Young's moduli were computed from the recorded stress-strain plots in the linear region.
Irradiation was conducted in the presence of a solution of riboflavin 5′-phosphate monosodium salt in saline in accordance with the procedure of Example 1. The results were expressed as mean values±standard error of the mean. […]

- Young's modulus (stiffness) vs degradation time, samples first irradiated then subjected to collagenolysis (I/D) compared with D and D/I ([2]; 37° C., n=30): highest
- ultimate stress (strength) vs degradation time, samples first irradiated then subjected to collagenolysis (I/D) compared with D and D/I ([2]; 37° C., n=30): highest
- statistical differences between degraded non-irradiated samples (D) and those irradiated after degradation (D/I), modulus and stress ([2]; p~0.2-0.5): low significance
SMILES: Cc1cc2nc3c(=O)[nH]c(=O)nc-3n(C[C@H](O)[C@H](O)[C@H](O)COP(=O)([O-])O)c2cc1C.[Na+] [riboflavin 5′-phosphate monosodium salt]
- Cauchy stress, difference between non-irradiated and irradiated specimens ([1]; circumferential (p=1.4×10^−3) and longitudinal (p=5.3×10^−4)): high level of statistical significance
- tangent modulus (stiffness), difference between non-irradiated and irradiated specimens ([1]; circumferential (p=6.8×10^−5) and longitudinal (p=7.1×10^−5)): high level of statistical significance
- Young's modulus (stiffness), difference between non-irradiated and irradiated specimens ([3]; p=0.0012): statistically significant
- ultimate stress (maximum load at the time of rupture), difference between non-irradiated and irradiated specimens ([3]; p=0.0015): statistically significant
